# Experimental data published in patent US9365584B2, “Thieno [2,3-B] pyridinedione activators of AMPK and therapeutic uses thereof” (Poxel, priority 2009, dated 2016).
# System: AMPK
# Test: AMPK enzyme activity assay (Delfia technology, AMARA peptide substrate)
# Type: biochemical
# Details: compound at 30 μM vs AMP at 200 μM
# Procedure, shortened: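 Value is the ratio of compound (30 μM) to AMP (200 μM) response, each as % of basal control. Phosphorylation of the AMARA peptide after AMPK addition was read by Delfia with an anti-phosphoserine antibody.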
row,Activity: Ratio between the % of control (basal activity) of compound of formula (1) at 30 μM and the % of control (basal activity) of AMP (natural substrate) at 200 μM,SMILES
1,A (0%<A<50%),"COc1ccc(-c2c(Cl)sc3c2C(=O)C(C)(c2cccc(C)c2)C(=O)N3)cc1 (centres unmarked) [No 87, 2-chloro-3-(4-methoxyphenyl)-5-methyl-5-(m-tolyl)-7H-thieno[2,3-b]pyridine-4,6-dione]"
2,A (0%<A<50%),"COc1ccc(-c2c(Cl)sc3c2C(=O)C(C)(c2cccc(OC)c2)C(=O)N3)cc1 (centres unmarked) [No 88, 2-chloro-5-(3-methoxyphenyl)-3-(4-methoxyphenyl)-5-methyl-7H-thieno[2,3-b]pyridine-4,6-dione]"
3,A (0%<A<50%),"CC1(c2ccccc2F)C(=O)Nc2sc(Cl)c(-c3ccccc3F)c2C1=O (centres unmarked) [No 89, 2-chloro-3,5-bis(2-fluorophenyl)-5-methyl-7H-thieno[2,3-b]pyridine-4,6-dione]"
4,A (0%<A<50%),"CC1(c2cccc(F)c2)C(=O)Nc2sc(Cl)c(-c3ccccc3F)c2C1=O (centres unmarked) [No 90, 2-chloro-3-(2-fluorophenyl)-5-(3-fluorophenyl)-5-methyl-7H-thieno[2,3-b]pyridine-4,6-dione]"
5,A (0%<A<50%),"CC1(c2ccc(F)cc2)C(=O)Nc2sc(Cl)c(-c3ccccc3F)c2C1=O (centres unmarked) [No 91, 2-chloro-3-(2-fluorophenyl)-5-(4-fluorophenyl)-5-methyl-7H-thieno[2,3-b]pyridine-4,6-dione]"
6,A (0%<A<50%),"Cc1cccc(C2(C)C(=O)Nc3sc(Cl)c(-c4ccccc4F)c3C2=O)c1 (centres unmarked) [No 92, 2-chloro-3-(2-fluorophenyl)-5-methyl-5-(m-tolyl)-7H-thieno[2,3-b]pyridine-4,6-dione]"
7,C (C≧75%),"COc1cccc(-c2c(Cl)sc3c2C(=O)C(F)(c2ccccc2)C(=O)N3)c1 (centres unmarked) [No 94, 2-chloro-5-fluoro-3-(3-methoxyphenyl)-5-phenyl-7H-thieno[2,3-b]pyridine-4,6-dione]"
8,A (0%<A<50%),"COc1ccc(-c2c(Cl)sc3c2C(=O)C(C)(c2ccc(C)cc2)C(=O)N3)cc1 (centres unmarked) [No 96, 2-chloro-3-(4-methoxyphenyl)-5-methyl-5-(p-tolyl)-7H-thieno[2,3-b]pyridine-4,6-dione]"
9,C (C≧75%),"COc1ccccc1C1(F)C(=O)Nc2sc(Cl)c(-c3ccc(F)cc3O)c2C1=O (centres unmarked) [No 99, 2-chloro-5-fluoro-3-(4-fluoro-2-hydroxy-phenyl)-5-(2-methoxyphenyl)-7H-thieno[2,3-b]pyridine-4,6-dione]"
10,A (0%<A<50%),"CC1(c2cccc(F)c2)C(=O)Nc2sc(Cl)c(-c3cccc(F)c3)c2C1=O (centres unmarked) [No 103, 2-chloro-3,5-bis(3-fluorophenyl)-5-methyl-7H-thieno[2,3-b]pyridine-4,6-dione]"
11,B (50%≦B<75%),"CC1(c2ccccc2F)C(=O)Nc2sc(Cl)c(-c3cccc(F)c3)c2C1=O (centres unmarked) [No 104, 2-chloro-5-(2-fluorophenyl)-3-(3-fluorophenyl)-5-methyl-7H-thieno[2,3-b]pyridine-4,6-dione]"
12,A (0%<A<50%),"COc1cccc(C2(C)C(=O)Nc3sc(Cl)c(-c4cccc(F)c4)c3C2=O)c1 (centres unmarked) [No 105, 2-chloro-3-(3-fluorophenyl)-5-(3-methoxyphenyl)-5-methyl-7H-thieno[2,3-b]pyridine-4,6-dione]"
13,A (0%<A<50%),"Cc1cccc(C2(C)C(=O)Nc3sc(Cl)c(-c4cccc(F)c4)c3C2=O)c1 (centres unmarked) [No 106, 2-chloro-3-(3-fluorophenyl)-5-methyl-5-(m-tolyl)-7H-thieno[2,3-b]pyridine-4,6-dione]"
14,A (0%<A<50%),"COc1ccccc1-c1c(Cl)sc2c1C(=O)C(C)(c1ccccc1)C(=O)N2 (centres unmarked) [No 107, 2-chloro-3-(2-methoxyphenyl)-5-methyl-5-phenyl-7H-thieno[2,3-b]pyridine-4,6-dione]"
15,B (50%≦B<75%),"COc1cc(-c2c(F)sc3c2C(=O)C(F)(c2ccccc2)C(=O)N3)ccc1C (centres unmarked) [No 114, 2,5-difluoro-3-(3-methoxy-4-methyl-phenyl)-5-phenyl-7H-thieno[2,3-b]pyridine-4,6-dione]"

# Continued, compound first:
row,SMILES,Activity: Ratio between the % of control (basal activity) of compound of formula (1) at 30 μM and the % of control (basal activity) of AMP (natural substrate) at 200 μM
1,"O=C1Nc2sc(Cl)c(-c3ccncc3)c2C(=O)C1(F)c1ccccc1 (centres unmarked) [No 93, 2-chloro-5-fluoro-5-phenyl-3-(4-pyridyl)-7H-thieno[2,3-b]pyridine-4,6-dione]",A (0%<A<50%)
2,"O=C1Nc2sc(Cl)c(-c3ccccc3)c2C(=O)C1(F)c1cccc(C(F)(F)F)c1 (centres unmarked) [No 95, 2-chloro-5-fluoro-3-phenyl-5-[3-(trifluoro-methyl)phenyl]-7H-thieno[2,3-b]pyridine-4,6-dione]",B (50%≦B<75%)
3,"CS(=O)(=O)c1ccc(C2(F)C(=O)Nc3sc(Cl)c(-c4ccccc4)c3C2=O)cc1 (centres unmarked) [No 97, 2-chloro-5-fluoro-5-(4-methylsulfonylphenyl)-3-phenyl-7H-thieno[2,3-b]pyridine-4,6-dione]",C (C≧75%)
4,"COc1ccccc1-c1c(Cl)sc2c1C(=O)C(F)(c1ccccc1)C(=O)N2 (centres unmarked) [No 98, 2-chloro-5-fluoro-3-(2-methoxyphenyl)-5-phenyl-7H-thieno[2,3-b]pyridine-4,6-dione]",A (0%<A<50%)
5,"O=C1Nc2scc(-c3ccccc3)c2C(=O)C1(F)c1ccccc1 (centres unmarked) [No 100, 5-fluoro-3,5-diphenyl-7H-thieno[2,3-b]pyridine-4,6-dione]",B (50%≦B<75%)
6,"O=C1Nc2sc(Cl)c(-c3ccccc3Cl)c2C(=O)C1(F)c1ccccc1 (centres unmarked) [No 101, 2-chloro-3-(2-chlorophenyl)-5-fluoro-5-phenyl-7H-thieno[2,3-b]pyridine-4,6-dione]",B (50%≦B<75%)
7,"Cc1c(F)ccc(-c2csc3c2C(=O)C(F)(c2ccccc2)C(=O)N3)c1O (centres unmarked) [No 102, 5-fluoro-3-(4-fluoro-2-hydroxy-3-methyl-phenyl)-5-phenyl-7H-thieno[2,3-b]pyridine-4,6-dione]",C (C≧75%)
8,"Cc1c(F)ccc(-c2csc3c2C(=O)C(F)(c2ccc(F)cc2)C(=O)N3)c1O (centres unmarked) [No 108, 5-fluoro-3-(4-fluoro-2-hydroxy-3-methyl-phenyl)-5-(4-fluorophenyl)-7H-thieno[2,3-b]pyridine-4,6-dione]",C (C≧75%)
9,"Cc1ccc(C2(F)C(=O)Nc3scc(-c4ccc(F)cc4O)c3C2=O)cc1 (centres unmarked) [No 109, 5-fluoro-3-(4-fluoro-2-hydroxy-phenyl)-5-(p-tolyl)-7H-thieno[2,3-b]pyridine-4,6-dione]",C (C≧75%)
10,"COc1cc(C)ccc1-c1csc2c1C(=O)C(F)(c1cccc(C#N)c1)C(=O)N2 (centres unmarked) [No 110, 3-[5-fluoro-3-(2-methoxy-4-methyl-phenyl)-4,6-dioxo-7H-thieno[2,3-b]pyridin-5-yl]benzonitrile]",C (C≧75%)
11,"COc1cc(C)ccc1-c1c(F)sc2c1C(=O)C(F)(c1cccc(C#N)c1)C(=O)N2 (centres unmarked) [No 111, 3-[2,5-difluoro-3-(2-methoxy-4-methyl-phenyl)-4,6-dioxo-7H-thieno[2,3-b]pyridin-5-yl]benzonitrile]",C (C≧75%)
12,"COc1cccc(O)c1-c1csc2c1C(=O)C(F)(c1ccccc1)C(=O)N2 (centres unmarked) [No 112, 5-fluoro-3-(2-hydroxy-6-methoxy-phenyl)-5-phenyl-7H-thieno[2,3-b]pyridine-4,6-dione]",A (0%<A<50%)
13,"COc1cc(-c2csc3c2C(=O)C(F)(c2ccccc2)C(=O)N3)ccc1C (centres unmarked) [No 113, 5-fluoro-3-(3-methoxy-4-methyl-phenyl)-5-phenyl-7H-thieno[2,3-b]pyridine-4,6-dione]",B (50%≦B<75%)
14,"Cc1ccc(-c2csc3c2C(=O)C(F)(c2ccccc2)C(=O)N3)cc1O (centres unmarked) [No 115, 5-fluoro-3-(3-hydroxy-4-methyl-phenyl)-5-phenyl-7H-thieno[2,3-b]pyridine-4,6-dione]",C (C≧75%)
15,"Cc1ccc(-c2c(F)sc3c2C(=O)C(F)(c2ccccc2)C(=O)N3)cc1O (centres unmarked) [No 116, 2,5-difluoro-3-(3-hydroxy-4-methyl-phenyl)-5-phenyl-7H-thieno[2,3-b]pyridine-4,6-dione]",C (C≧75%)

# Same assay, conditions: compound at 30 μM vs AMP at 200 μM; listed as 4
row,Activity: Ratio between the % of control (basal activity) of compound of formula (1) at 30 μM and the % of control (basal activity) of AMP (natural substrate) at 200 μM,SMILES
1,A (0%<A<50%),"COc1cc(C)ccc1-c1csc2c1C(=O)C(F)(c1cccc(C#N)c1)C(=O)N2 (centres unmarked) [No 110, 3-[5-fluoro-3-(2-methoxy-4-methyl-phenyl)-4,6-dioxo-7H-thieno[2,3-b]pyridin-5-yl]benzonitrile]"

# Same assay, conditions: compound at 30 μM vs AMP at 200 μM; listed as 5
row,Activity: Ratio between the % of control (basal activity) of compound of formula (1) at 30 μM and the % of control (basal activity) of AMP (natural substrate) at 200 μM,SMILES
1,A (0%<A<50%),"COc1cc(C)ccc1-c1c(F)sc2c1C(=O)C(F)(c1cccc(C#N)c1)C(=O)N2 (centres unmarked) [No 111, 3-[2,5-difluoro-3-(2-methoxy-4-methyl-phenyl)-4,6-dioxo-7H-thieno[2,3-b]pyridin-5-yl]benzonitrile]"
